Assay results published in patent EP4599827A1, “DGL FOR THE INDUCTION OF ENDOTHELIAL-DERIVED NO-DEPENDENT VASODILATION” (Dr. Kurt Wolff GmbH & Co. KG, priority 2024, dated 2025).

Experiments:
Format in all cases: cell-based, human
eNOS [1] = assay: Immunocytochemistry of eNOS expression in HDMECs; details: semiquantitative immunocytochemistry, 24 h treatment, DMG-Na 0,005%, 0,02% and 0,05%
Description: (§1) Adulte humane mikrovaskuläre Endothelzellen der Haut (HDMECs) wurden 2023 von Lonza Ltd (Basel, Schweiz) erworben und kultiviert in EBM™-2 Endothelial Cell Growth Basal Medium, ergänzt mit EGM™-2 MV Microvascular Endothelial SingleQuots™ Kit (beide von Lonza Ltd, Basel, Schweiz), enthaltend humanen epidermalen Wachstumsfaktor, vaskulären Endothelial Growth Factor, R^3-Insulin-like Growth Factor-1, Ascorbinsäure, Hydrocortison, humanen Fibroblasten-Wachstumsfaktor-Beta, fötales Rinderserum und Gentamicin/Amphotericin-B und gemäß den Richtlinien des Herstellers kultiviert. Die HDMECs wurden von 2 verschiedenen weiblichen Spendern initiiert und es wurden die Passagen 4 bis 8 wurden für die Experimente verwendet.
HDMECs (5.000 Zellen pro 10 mm runde Glasdeckgläser), die mit DMG-Na (0,005%, 0,02% und 0,05%) behandelt wurden, wurden in 1% Paraformaldehyd (PFA, Merck KGaA, Darmstadt) für 10 Minuten bei Raumtemperatur fixiert und nach einem Waschschritt mit phosphatgepufferter Kochsalzlösung (PBS, Merck KGaA) für 5 Minuten mit -20 °C kalter Ethanol-Essigsäure (2:1) nachfixiert. […]

eNOS [2] = assay: Western blot of eNOS protein content in HDMECs
Description: as §1
HDMECs wurden in 6-Well-Platten ausgesät und für 24 Stunden mit DMG-Na (0,005% und 0,05%) behandelt. Nach der Behandlung wurden die Zellen in Lysispuffer (30 mM TRIS, pH 7,6, 140 mM NaCl, 5 mM EDTA, 50 mM NaF, 1 mM Na3VO4), der mit Proteaseinhibitoren ergänzt wurde, geerntet. Nach kräftigem Vortexen und Zentrifugieren wurde der Proteingehalt der Proben unter Verwendung des Pierce BCA Protein Assay Kits (Thermo Fisher Scientific, Waltham, MA) bestimmt. Gleiche Mengen an Proteinproben wurden einer 7,5%-igen SDS-PAGE unterzogen und auf Nitrocellulose-Membranen (Bio-Rad Laboratories, Hercules, CA) übertragen. […]

HDMECs = assay: Microfluorimetric measurement of NO (DAF-FM DA) in HDMECs; details: DAF-FM-DA microfluorimetry, increase vs control
Description: as §1
HDMECs wurden mit einer Dichte von 15.000 Zellen pro Well in einer schwarzen 96-WellPlatte mit klarem Boden (Greiner Bio-One, Kremsmünster, Österreich) ausgesät und in Wachstumsmedium bei 37 °C für 24 Stunden kultiviert. Anschließend wurden die Zellen mit 5 µM DAF-FM DA (4-Amino-5-methylamin-2',7'-difluororesceindiacetat) in phenolrotfreiem DMEM (beides von Thermo Fisher Scientific, Waltham, MA), ergänzt mit 0,5% FBS (Serana Europe GmbH, Brandenburg, Deutschland) für 1 Stunde bei 37 °C inkubiert. […]

**Q.** How did the “Expression von eNOS” value (eNOS [1]) turn out when `CN(C)CC(=O)O` [DMG-Na, N,N-Dimethylglycin-Natriumsalz] was run?
**A.** Expression von eNOS nach 24-stündiger Behandlung zu erhöhen

**Q.** And the “Proteingehalt von eNOS” value (eNOS [2]; 24 h, 0,05% DMG-Na, increase vs control, p=0,0189)?
**A.** statistisch signifikant

**Q.** And the “Proteingehalt von eNOS” value (eNOS [2]; 24 h, DMG-Na 0,005% and 0,05%, vs control)?
**A.** dosisabhängig

**Q.** What about the “zelluläre NO-Produktion” value (HDMECs; 0.02%, p=0,0002) of the same compound?
**A.** statistisch signifikant

**Q.** What about the “zelluläre NO-Produktion” value (HDMECs; 0.05%, p=0,0001) of the same compound?
**A.** statistisch signifikant
